Assay results published in the supplement of paper PMC10307832.

Each cell line was assayed with CN(C)C(=N)NC(=N)N [Metformin] + N=C(N)NC(=N)NCCc1ccccc1 [Phenformin] (partner 250 µM) (assay: relative viability (nuclei count vs DMSO), 5 days (fraction); higher = more cells survive). Conditions: first compound 10 µM.
Procedure, shortened: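 Relative viability divides the nuclei count in treated wells by that in vehicle wells. Lung cancer cell lines were seeded in 1536-well plates, dosed by pin tool the next day, and fixed and stained after 5 days in one step with final 0.05% Triton X-100, 1% formaldehyde and 1 ug/ml Hoechst. Dosing was a single drug or a fixed anchor-drug dose plus five library-drug doses (not always all listed) in √10 steps, and values are medians of duplicate plates imaged at 4×.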

| Cell Line | relative viability |
| --- | --- |
| ABC-1 | 0.292 |
| BEN | 0.295 |
| CAL-12T | 0.635 |
| COR-L23 | 0.437 |
| COR-L 105 | 0.727 |
| ChaGo-K-1 | 0.539 |
| EKVX | 0.23 |
| EMC-BAC-2 | 0.592 |
| EPLC-272H | 0.333 |
| H3255 | 0.395 |
| HCC-44 | 0.236 |
| HCC-78 | 0.685 |
| HCC-366 | 0.403 |
| HOP-62 | 0.486 |
| LCLC-97TM1 | 0.478 |
| LCLC-103H | 0.337 |
| LK-2 | 0.758 |
| LOU-NH91 | 0.731 |
| LU99A | 0.937 |
| LXF-289 | 0.48 |
| NCI-H23 | 0.743 |
| NCI-H322M | 0.839 |
| NCI-H358 | 0.351 |
| NCI-H520 | 1.08 |
| NCI-H596 | 0.84 |
| NCI-H1563 | 0.704 |
| NCI-H1623 | 0.556 |

Same assay, conditions: first compound 31.62 µM

| Cell Line | relative viability |
| --- | --- |
| 201T | 0.426 |
| A549 | 0.111 |
| A-427 | 0.376 |
| ABC-1 | 0.244 |
| BEN | 0.292 |
| CAL-12T | 0.61 |
| COR-L23 | 0.46 |
| COR-L 105 | 0.61 |
| ChaGo-K-1 | 0.498 |
| EKVX | 0.253 |
| EMC-BAC-2 | 0.519 |
| EPLC-272H | 0.369 |
| H3255 | 0.365 |
| HARA | 0.459 |
| HCC-15 | 0.495 |
| HCC-44 | 0.35 |
| HCC-78 | 0.716 |
| HCC-366 | 0.679 |

| Cell Line | relative viability |
| --- | --- |
| HCC-827 | 0.412 |
| HOP-62 | 0.577 |
| LC-2-ad | 0.636 |
| LCLC-97TM1 | 0.43 |
| LCLC-103H | 0.374 |
| LK-2 | 0.636 |
| LOU-NH91 | 0.593 |
| LU99A | 0.816 |
| LXF-289 | 0.525 |
| NCI-H23 | 0.716 |
| NCI-H322M | 0.802 |
| NCI-H358 | 0.237 |
| NCI-H441 | 0.707 |
| NCI-H520 | 0.892 |
| NCI-H596 | 0.73 |
| NCI-H1563 | 0.702 |
| NCI-H1623 | 0.553 |

Same assay, conditions: first compound 100 µM

| Cell Line | relative viability |
| --- | --- |
| 201T | 0.47 |
| A549 | 0.127 |
| A-427 | 0.325 |
| ABC-1 | 0.251 |
| BEN | 0.297 |
| CAL-12T | 0.634 |
| COR-L23 | 0.487 |
| COR-L 105 | 0.65 |
| ChaGo-K-1 | 0.488 |
| EKVX | 0.239 |
| EMC-BAC-2 | 0.506 |
| EPLC-272H | 0.381 |
| H3255 | 0.436 |
| HARA | 0.518 |
| HCC-15 | 0.464 |
| HCC-44 | 0.298 |
| HCC-78 | 0.627 |
| HCC-366 | 0.616 |

| Cell Line | relative viability |
| --- | --- |
| HCC-827 | 0.376 |
| HOP-62 | 0.527 |
| LC-2-ad | 0.486 |
| LCLC-97TM1 | 0.332 |
| LCLC-103H | 0.407 |
| LK-2 | 0.374 |
| LOU-NH91 | 0.545 |
| LU99A | 0.761 |
| LXF-289 | 0.537 |
| NCI-H23 | 0.716 |
| NCI-H322M | 0.809 |
| NCI-H358 | 0.217 |
| NCI-H441 | 0.706 |
| NCI-H520 | 0.603 |
| NCI-H596 | 0.689 |
| NCI-H1563 | 0.647 |
| NCI-H1623 | 0.569 |

Same assay, conditions: first compound 316.23 µM

| Cell Line | relative viability |
| --- | --- |
| 201T | 0.435 |
| A549 | 0.124 |
| A-427 | 0.284 |
| ABC-1 | 0.202 |
| BEN | 0.27 |
| CAL-12T | 0.555 |
| COR-L23 | 0.431 |
| COR-L 105 | 0.568 |
| ChaGo-K-1 | 0.489 |
| EMC-BAC-2 | 0.499 |
| EPLC-272H | 0.262 |
| H3255 | 0.338 |
| HARA | 0.493 |
| HCC-15 | 0.426 |
| HCC-44 | 0.223 |
| HCC-78 | 0.651 |
| HCC-366 | 0.644 |

| Cell Line | relative viability |
| --- | --- |
| HCC-827 | 0.365 |
| HOP-62 | 0.478 |
| LC-2-ad | 0.539 |
| LCLC-97TM1 | 0.398 |
| LCLC-103H | 0.324 |
| LK-2 | 0.381 |
| LOU-NH91 | 0.755 |
| LU99A | 0.775 |
| LXF-289 | 0.509 |
| NCI-H23 | 0.729 |
| NCI-H322M | 0.735 |
| NCI-H358 | 0.309 |
| NCI-H441 | 0.586 |
| NCI-H520 | 0.658 |
| NCI-H596 | 0.765 |
| NCI-H1563 | 0.663 |
| NCI-H1623 | 0.577 |

Same assay, conditions: first compound 1000 µM

| Cell Line | relative viability |
| --- | --- |
| 201T | 0.414 |
| A549 | 0.154 |
| A-427 | 0.287 |
| ABC-1 | 0.19 |
| BEN | 0.252 |
| CAL-12T | 0.604 |
| COR-L23 | 0.146 |
| COR-L 105 | 0.494 |
| ChaGo-K-1 | 0.557 |
| EKVX | 0.189 |
| EMC-BAC-2 | 0.651 |
| EPLC-272H | 0.304 |
| H3255 | 0.382 |
| HARA | 0.591 |
| HCC-15 | 0.491 |
| HCC-44 | 0.166 |
| HCC-78 | 0.782 |
| HCC-366 | 0.734 |

| Cell Line | relative viability |
| --- | --- |
| HCC-827 | 0.373 |
| HOP-62 | 0.593 |
| LC-2-ad | 0.592 |
| LCLC-97TM1 | 0.477 |
| LCLC-103H | 0.398 |
| LK-2 | 0.667 |
| LOU-NH91 | 0.734 |
| LU99A | 0.919 |
| LXF-289 | 0.51 |
| NCI-H23 | 0.897 |
| NCI-H322M | 0.746 |
| NCI-H358 | 0.328 |
| NCI-H441 | 0.803 |
| NCI-H520 | 0.78 |
| NCI-H596 | 0.952 |
| NCI-H1563 | 0.56 |
| NCI-H1623 | 0.371 |
